According to patent US5254577A, “Aminomethyloxooxazolidinyl arylbenzene derivatives useful as antibacterial agents” (The Du Pont Merck Pharmaceutical Company, priority 1992, dated 1993):
≈ marks a conversion by molar mass, not a printed value. Structures can show the parent of a compound that is named as a salt. Where two headings read alike, the source gives them in different places.

Key:
Escherichia coli = assay: In vitro broth microdilution, 24-hour minimal inhibitory concentration (MIC); type: cell-based; conditions: Mueller-Hinton broth, read-out: Minimum Inhibitory Concentration
Text: (§1) A standard microdilution method (National Committee for Clinical Standards. Tentative standard M7-T. Standard methods for dilution antimicrobial susceptibility tests for bacteria that grow aerobically. National Committee for Clinical Laboratory Standards, Villanova, Pa. 1982) with Mueller-Hinton broth is used to determine the 24-hour minimal inhibitory concentrations (MIC's) for test strains of Staphylococcus aureus and Escherichia coli.

Staphylococcus aureus [1] = assay: as above; type: cell-based; conditions: Mueller-Hinton broth, read-out: Minimum Inhibitory Concentration
Text: as §1

Staphylococcus aureus [2] = assay: In vivo activity against Staphylococcus aureus in an acute lethal mouse model; conditions: Staphylococcus aureus, 168 h, mice infected intraperitoneally, dosed 1 h and 4 h post-infection, survivors on seventh day, read-out: ED50
Protocol: The in vivo potency of these compounds is exemplified by the data summarized in Table X. Determinations of in vivo efficacy are performed by inoculating mice intraperitoneally with cultures of the infecting organism diluted to produce 100% mortality in control animals within twenty-four hours. The culture of S. aureus used to infect the animals was diluted to the required bacterial density using 5% aqueous hog gastric mucin. The compounds are dissolved or suspended in 0.25% aqueous Methocel® (Methocel®: Hydroxypropyl Methylcullulose, E15 Premium, Dow Chemical Company) for oral administration or sterile distilled water containing 5% dimethylsulfoxide (Fisher Scientific Company, Fairlawn, N.J.) for subcutaneous administration. The mice are dosed at one hour and at four hours post-infection. Mortality is recorded daily until test determination seven days post infection. The number of survivors in each treatment group on the seventh day after infection is used in the calculation of the ED50, the dose of compound that protects 50% of the mice (Litchfield,J. T. and Wildoxon. A simulated method for evaluating dose-effect experiments. J. Pharmacol Exp. Ther., 98:99-113, 1949).

[3] = sc, Subcutaneous Administration

`CC(=O)NC[C@H]1CN(c2ccc(-c3ccc(C(C)NN4CCN(C)CC4)cc3)cc2)C(=O)O1` (single isomer, unassigned) [Example 26, (l)-N-[3-(4-(4'-(1-(4-Methylpiperazinylamino)ethyl))phenyl)phenyl-2-oxooxazolidin-5-ylmethyl]acetamide] showed an MIC (Escherichia coli) greater than 128 µg/mL and an MIC (Staphylococcus aureus [1]) of 1 µg/mL (≈ 2.21 µM).

`CC(=O)NC[C@H]1CN(c2ccc(-c3ccc(C(C)O)cc3)cc2)C(=O)O1` (single isomer, unassigned) [Example 27, (l)-N-[3-(4-(4'-(1-Hydroxyethyl)phenyl)phenyl)-2-oxooxazolidin-5-ylmethyl]acetamide] gave an MIC (Escherichia coli) greater than 128 µg/mL, an MIC (Staphylococcus aureus [1]) of 0.5 µg/mL (≈ 1.41 µM) and an ED50 (Staphylococcus aureus [2]; Oral Administration) of 6.6 mg/kg. For the same compound, the ED50 (Staphylococcus aureus [2]; [3]) was 7.6 mg/kg.

`CC(=O)NC[C@H]1CN(c2ccc(-c3ccc(C(O)CCN(C)C)cc3)cc2)C(=O)O1` (single isomer, unassigned) [Example 58, (l)-N-[3-(4-(4'-(3-N,N-Dimethylamino-1-hydroxypropyl)phenyl)phenyl)-2-oxooxazolidin-5-ylmethyl]acetamide] was tested, and the MIC (Escherichia coli) was greater than 128 µg/mL, the MIC (Staphylococcus aureus [1]) was 1 µg/mL (≈ 2.43 µM) and the ED50 (Staphylococcus aureus [2]; Oral Administration) was 13.8 mg/kg. It also gave an ED50 (Staphylococcus aureus [2]; [3]) of 2 mg/kg.

`CC(=O)NC[C@H]1CN(c2ccc(-c3ccc(C(O)CCN4CCOCC4)cc3)cc2)C(=O)O1` (single isomer, unassigned) [Example 59, (l)-N-[3-(4-(4'-(1-hydroxy-3-(4-morpholinyl)propyl)phenyl)phenyl)-2-oxooxazolidin-5-ylmethyl]acetamide] gave an MIC (Escherichia coli) greater than 128 µg/mL, an MIC (Staphylococcus aureus [1]) of 2 µg/mL (≈ 4.41 µM) and an ED50 (Staphylococcus aureus [2]; Oral Administration) of 7 mg/kg. The ED50 (Staphylococcus aureus [2]; [3]) was 2.7 mg/kg.

In the case of `CC(=O)NC[C@H]1CN(c2ccc(-c3cccc([S+](C)[O-])c3)cc2)C(=O)O1` (single isomer, unassigned) [Example 65], the MIC (Escherichia coli) was greater than 128 µg/mL, the MIC (Staphylococcus aureus [1]) was 2 µg/mL (≈ 5.37 µM) and the ED50 (Staphylococcus aureus [2]; [3]) was 4.3 mg/kg.

For `CC(=O)NC[C@H]1CN(c2ccc(-c3ccc([S+](C)[O-])cc3)cc2)C(=O)O1` (single isomer, unassigned) [Example 68, (l)-N-[3-(4-(4'-methylsulfinylphenyl)phenyl)-2-oxooxazolidin-5-ylmethyl]acetamide], the MIC (Escherichia coli) was greater than 128 µg/mL, the MIC (Staphylococcus aureus [1]) was 0.25 µg/mL (≈ 0.671 µM) and the ED50 (Staphylococcus aureus [2]; Oral Administration) was 2.2 mg/kg. The ED50 (Staphylococcus aureus [2]; [3]) was 0.7 mg/kg.

With `CC(=O)NC[C@H]1CN(c2ccc(-c3ccccc3)cc2)C(=O)O1` [Example 3, (l)-N-[3-(4-Phenylphenyl)-2-oxooxazolidin-5-ylmethyl]acetamide] the MIC (Escherichia coli) was greater than 128 µg/mL, the MIC (Staphylococcus aureus [1]) was 0.5 µg/mL (≈ 1.61 µM) and the ED50 (Staphylococcus aureus [2]; Oral Administration) was 2.9 mg/kg. It also gave an ED50 (Staphylococcus aureus [2]; [3]) of 2 mg/kg.

`CC(=O)NC[C@H]1CN(c2ccc(-c3ccc(C(C)=O)cc3)cc2)C(=O)O1` [Example 4, (l)-N-[3-(4-(4'-Acetylphenyl)phenyl)-2-oxooxazolidin-5-ylmethyl]acetamide] was tested, and the MIC (Escherichia coli) was greater than 128 µg/mL, the MIC (Staphylococcus aureus [1]) was 0.5 µg/mL (≈ 1.42 µM) and the ED50 (Staphylococcus aureus [2]; Oral Administration) was 22 mg/kg. It also gave an ED50 (Staphylococcus aureus [2]; [3]) of 39.7 mg/kg.

`CCC(=O)c1ccc(-c2ccc(N3C[C@H](CNC(C)=O)OC3=O)cc2)cc1` [Example 7] was tested, and the MIC (Escherichia coli) was greater than 128 µg/mL, the MIC (Staphylococcus aureus [1]) was 2 µg/mL (≈ 5.46 µM) and the ED50 (Staphylococcus aureus [2]; [3]) was 90 mg/kg.

`CC(=O)NC[C@H]1CN(c2ccc(-c3ccc(C(=O)CCl)cc3)cc2)C(=O)O1` [Example 8] was tested, and the MIC (Escherichia coli) was greater than 128 µg/mL, the MIC (Staphylococcus aureus [1]) was less than 0.13 µg/mL and the ED50 (Staphylococcus aureus [2]; Oral Administration) was greater than 90 mg/kg. The ED50 (Staphylococcus aureus [2]; [3]) was greater than 90 mg/kg.

`CC(=O)NC[C@H]1CN(c2ccc(-c3ccc(C(=O)CCC(=O)O)cc3)cc2)C(=O)O1` [Example 9] gave an MIC (Escherichia coli) greater than 128 µg/mL, an MIC (Staphylococcus aureus [1]) of less than 0.13 µg/mL and an ED50 (Staphylococcus aureus [2]; Oral Administration) greater than 90 mg/kg. For the same compound, the ED50 (Staphylococcus aureus [2]; [3]) was 16.8 mg/kg.

`CC(=O)NC[C@H]1CN(c2ccc(-c3ccc(C(=O)CC(C)(C)C(=O)O)cc3)cc2)C(=O)O1` [Example 10] was tested, and the MIC (Escherichia coli) was greater than 128 µg/mL and the MIC (Staphylococcus aureus [1]) was 0.5 µg/mL (≈ 1.14 µM).

For `CC(=O)NC[C@H]1CN(c2ccc(-c3ccc(I)cc3)cc2)C(=O)O1` [Example 20, (l)-N-[3-(4-(4'-Iodophenyl)phenyl)-2-oxooxazolidin-5-ylmethyl]acetamide], the MIC (Escherichia coli) was greater than 128 µg/mL, the MIC (Staphylococcus aureus [1]) was 8 µg/mL (≈ 18.3 µM) and the ED50 (Staphylococcus aureus [2]; Oral Administration) was greater than 90 mg/kg. The ED50 (Staphylococcus aureus [2]; [3]) was greater than 90 mg/kg.

With `CC(=O)NC[C@H]1CN(c2ccc(-c3ccc(C=O)cc3)cc2)C(=O)O1` [Example 21, (l)-N-[3-(4-(4'-Formylphenyl)phenyl)-2-oxooxazolidin-5-ylmethyl]acetamide] the MIC (Escherichia coli) was greater than 128 µg/mL, the MIC (Staphylococcus aureus [1]) was less than 0.13 µg/mL and the ED50 (Staphylococcus aureus [2]; Oral Administration) was 44.7 mg/kg. For the same compound, the ED50 (Staphylococcus aureus [2]; [3]) was greater than 90 mg/kg.

`CC(=O)NC[C@H]1CN(c2ccc(-c3ccc(C(C)=NO)cc3)cc2)C(=O)O1` [Example 22, (l)-N-[3-(4-(4'-(1-Hydroxyiminoethyl)phenyl)phenyl)-2-oxooxazolidin-5-ylmethyl]acetamide] showed an MIC (Escherichia coli) greater than 128 µg/mL, an MIC (Staphylococcus aureus [1]) of 0.25 µg/mL (≈ 0.68 µM) and an ED50 (Staphylococcus aureus [2]; Oral Administration) greater than 90 mg/kg. The ED50 (Staphylococcus aureus [2]; [3]) was greater than 90 mg/kg.

`CC(=O)NC[C@H]1CN(c2ccc(-c3ccc(C(C)=NOC(=O)CCC(=O)O)cc3)cc2)C(=O)O1` [Example 23, Sodium Salt of Succinate Hemiester of (l)-N-[3-(4-(4'-(1-Hydroxyiminoethyl)phenyl)phenyl)-2-oxooxazolidin-5-ylmethyl]acetamide] showed an MIC (Escherichia coli) greater than 128 µg/mL, an MIC (Staphylococcus aureus [1]) of 1 µg/mL and an ED50 (Staphylococcus aureus [2]; Oral Administration) of 17.3 mg/kg. For the same compound, the ED50 (Staphylococcus aureus [2]; [3]) was 24.3 mg/kg.

`CC(=O)NC[C@H]1CN(c2ccc(-c3ccc(C(C)=NOCC(=O)O)cc3)cc2)C(=O)O1` [Example 24, (l)-N-[3-(4-(4'-(1-Carboxymethoxyliminoethyl)phenyl)phenyl)-2-oxooxazolidin-5-ylmethyl]acetamide] showed an MIC (Escherichia coli) greater than 128 µg/mL, an MIC (Staphylococcus aureus [1]) of 8 µg/mL (≈ 18.8 µM) and an ED50 (Staphylococcus aureus [2]; Oral Administration) greater than 90 mg/kg. It also gave an ED50 (Staphylococcus aureus [2]; [3]) greater than 90 mg/kg.
